Assay results published in ChEMBL document CHEMBL1130263 (J Med Chem, 1997).

Assays:
[1] = biological target: T1, 5-hydroxytryptamine receptor 2C (Rattus norvegicus, UniProt P08909)
T1 sequence (P08909 whole entry): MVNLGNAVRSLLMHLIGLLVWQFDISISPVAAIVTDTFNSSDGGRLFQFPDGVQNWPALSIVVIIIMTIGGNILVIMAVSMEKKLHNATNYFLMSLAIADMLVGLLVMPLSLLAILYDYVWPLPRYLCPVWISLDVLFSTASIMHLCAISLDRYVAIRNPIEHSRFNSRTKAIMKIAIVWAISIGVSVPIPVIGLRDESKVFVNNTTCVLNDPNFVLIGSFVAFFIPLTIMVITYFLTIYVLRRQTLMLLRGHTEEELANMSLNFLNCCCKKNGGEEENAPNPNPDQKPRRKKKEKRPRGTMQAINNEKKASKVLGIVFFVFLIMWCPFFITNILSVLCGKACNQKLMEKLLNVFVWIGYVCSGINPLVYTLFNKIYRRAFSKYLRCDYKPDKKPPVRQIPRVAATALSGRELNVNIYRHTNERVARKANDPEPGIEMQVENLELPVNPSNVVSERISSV
Description: Inhibition of [3H]mesulergine binding to 5-hydroxytryptamine 2C receptor in rat brain membranes

[2] = biological target: T2, Muscarinic acetylcholine receptor M1 (Homo sapiens, UniProt P11229); assay: Inhibitory binding of [3H]pirenzepine to human Muscarinic acetylcholine receptor M1 in membranes from CHO-K1 cells; format: cell-based
T2 sequence (P11229 whole entry): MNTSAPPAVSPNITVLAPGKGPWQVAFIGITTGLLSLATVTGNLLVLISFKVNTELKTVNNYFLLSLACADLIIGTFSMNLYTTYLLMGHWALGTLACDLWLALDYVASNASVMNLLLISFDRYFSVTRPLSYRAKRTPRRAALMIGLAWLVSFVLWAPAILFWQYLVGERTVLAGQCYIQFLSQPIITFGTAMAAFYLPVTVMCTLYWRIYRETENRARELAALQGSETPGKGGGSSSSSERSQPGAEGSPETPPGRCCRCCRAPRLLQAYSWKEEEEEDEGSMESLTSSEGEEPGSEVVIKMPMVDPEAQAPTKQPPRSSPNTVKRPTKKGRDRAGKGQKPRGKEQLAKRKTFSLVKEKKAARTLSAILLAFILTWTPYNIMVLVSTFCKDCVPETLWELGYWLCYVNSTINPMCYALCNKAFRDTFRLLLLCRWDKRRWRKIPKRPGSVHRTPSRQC

[3] = biological target: 5-hydroxytryptamine receptor 2A (Rattus norvegicus, UniProt P14842); assay: Inhibition of [3H]ketanserin binding to 5-hydroxytryptamine 2A receptor from rat brain
Sequence of 5-hydroxytryptamine receptor 2A (P14842 whole entry): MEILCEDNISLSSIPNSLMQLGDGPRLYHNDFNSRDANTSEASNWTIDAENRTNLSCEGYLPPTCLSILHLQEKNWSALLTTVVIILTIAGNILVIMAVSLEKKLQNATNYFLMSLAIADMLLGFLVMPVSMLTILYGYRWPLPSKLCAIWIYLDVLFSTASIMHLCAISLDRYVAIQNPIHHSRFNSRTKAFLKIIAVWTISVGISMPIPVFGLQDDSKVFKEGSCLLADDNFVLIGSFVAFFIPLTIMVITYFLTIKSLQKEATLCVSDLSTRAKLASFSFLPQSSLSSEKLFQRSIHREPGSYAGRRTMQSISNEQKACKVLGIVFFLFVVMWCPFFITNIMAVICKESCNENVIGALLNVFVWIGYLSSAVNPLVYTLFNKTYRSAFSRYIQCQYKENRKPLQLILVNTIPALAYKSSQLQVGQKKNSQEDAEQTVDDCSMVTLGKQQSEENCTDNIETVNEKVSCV

[4] = biological target: D(1A) dopamine receptor (Rattus norvegicus, UniProt P18901)
Sequence of D(1A) dopamine receptor (P18901 whole entry): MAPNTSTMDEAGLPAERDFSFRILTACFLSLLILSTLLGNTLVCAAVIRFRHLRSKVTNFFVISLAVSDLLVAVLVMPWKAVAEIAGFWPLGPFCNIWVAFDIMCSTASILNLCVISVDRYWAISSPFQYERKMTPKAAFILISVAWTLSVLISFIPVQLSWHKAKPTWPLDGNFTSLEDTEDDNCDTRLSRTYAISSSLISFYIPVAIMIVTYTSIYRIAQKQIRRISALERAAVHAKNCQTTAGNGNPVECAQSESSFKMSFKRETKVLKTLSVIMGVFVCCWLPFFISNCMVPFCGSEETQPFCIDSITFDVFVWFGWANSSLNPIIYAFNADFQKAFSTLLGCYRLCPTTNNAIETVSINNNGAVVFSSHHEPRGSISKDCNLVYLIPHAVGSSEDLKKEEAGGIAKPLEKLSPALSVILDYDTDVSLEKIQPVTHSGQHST
Description: Inhibitory binding of [3H]SCH-23390 to Dopamine receptor D1 in membranes from rat corpus striatum

[5] = biological target: T3, Adrenergic receptor alpha-1 (Rattus norvegicus, UniProt P15823+P23944+P43140); assay: Inhibition of [3H]prazosin binding to Alpha-1 adrenergic receptor in rat brain membranes
T3 sequence (P15823 whole entry): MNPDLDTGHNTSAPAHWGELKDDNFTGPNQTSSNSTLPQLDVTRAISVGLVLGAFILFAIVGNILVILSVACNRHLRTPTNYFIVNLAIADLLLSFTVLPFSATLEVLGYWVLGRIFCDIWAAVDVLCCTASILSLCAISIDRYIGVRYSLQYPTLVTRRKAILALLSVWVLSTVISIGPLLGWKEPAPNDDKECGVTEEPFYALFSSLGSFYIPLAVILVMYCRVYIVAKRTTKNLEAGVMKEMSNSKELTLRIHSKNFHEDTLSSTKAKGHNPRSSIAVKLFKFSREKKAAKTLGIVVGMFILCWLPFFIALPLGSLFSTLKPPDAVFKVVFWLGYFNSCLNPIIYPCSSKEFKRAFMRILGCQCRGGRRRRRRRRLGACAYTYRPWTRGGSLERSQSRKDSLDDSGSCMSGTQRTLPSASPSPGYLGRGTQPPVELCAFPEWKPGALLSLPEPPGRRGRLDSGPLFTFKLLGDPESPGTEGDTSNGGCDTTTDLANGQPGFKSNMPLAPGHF
T3 sequence (P23944 whole entry): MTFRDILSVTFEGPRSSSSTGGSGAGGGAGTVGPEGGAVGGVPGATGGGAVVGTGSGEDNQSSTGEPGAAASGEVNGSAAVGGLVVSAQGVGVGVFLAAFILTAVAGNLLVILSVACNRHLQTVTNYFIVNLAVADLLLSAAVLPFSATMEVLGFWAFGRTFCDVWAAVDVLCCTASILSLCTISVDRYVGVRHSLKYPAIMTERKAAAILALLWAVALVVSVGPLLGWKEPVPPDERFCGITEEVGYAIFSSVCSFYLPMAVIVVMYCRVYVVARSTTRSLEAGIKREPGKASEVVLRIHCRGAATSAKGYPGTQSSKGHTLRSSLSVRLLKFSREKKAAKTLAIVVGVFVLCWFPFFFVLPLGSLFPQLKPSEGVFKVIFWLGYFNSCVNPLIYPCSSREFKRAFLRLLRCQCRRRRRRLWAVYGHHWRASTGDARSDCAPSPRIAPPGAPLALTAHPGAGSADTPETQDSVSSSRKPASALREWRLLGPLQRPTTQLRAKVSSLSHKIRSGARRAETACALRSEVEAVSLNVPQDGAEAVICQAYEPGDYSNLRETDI
T3 sequence (P43140 whole entry): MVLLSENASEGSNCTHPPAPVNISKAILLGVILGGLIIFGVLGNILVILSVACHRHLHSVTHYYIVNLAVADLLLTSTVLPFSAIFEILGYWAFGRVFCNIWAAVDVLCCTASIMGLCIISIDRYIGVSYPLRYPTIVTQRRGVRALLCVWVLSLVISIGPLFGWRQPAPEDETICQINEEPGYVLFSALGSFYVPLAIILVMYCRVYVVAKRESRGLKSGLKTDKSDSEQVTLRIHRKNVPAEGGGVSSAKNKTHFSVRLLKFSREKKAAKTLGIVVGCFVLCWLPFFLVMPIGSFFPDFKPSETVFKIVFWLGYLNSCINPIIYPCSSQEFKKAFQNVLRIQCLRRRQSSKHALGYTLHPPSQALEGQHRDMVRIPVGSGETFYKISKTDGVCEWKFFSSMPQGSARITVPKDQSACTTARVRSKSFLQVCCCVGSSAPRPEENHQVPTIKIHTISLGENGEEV

[6] = biological target: Histamine H1 receptor (Rattus norvegicus, UniProt P31390); assay: Inhibitory binding of [3H]mepyramine to histamine H1 receptors in rat brain membranes; format: cell membranes
Sequence of Histamine H1 receptor (P31390 whole entry): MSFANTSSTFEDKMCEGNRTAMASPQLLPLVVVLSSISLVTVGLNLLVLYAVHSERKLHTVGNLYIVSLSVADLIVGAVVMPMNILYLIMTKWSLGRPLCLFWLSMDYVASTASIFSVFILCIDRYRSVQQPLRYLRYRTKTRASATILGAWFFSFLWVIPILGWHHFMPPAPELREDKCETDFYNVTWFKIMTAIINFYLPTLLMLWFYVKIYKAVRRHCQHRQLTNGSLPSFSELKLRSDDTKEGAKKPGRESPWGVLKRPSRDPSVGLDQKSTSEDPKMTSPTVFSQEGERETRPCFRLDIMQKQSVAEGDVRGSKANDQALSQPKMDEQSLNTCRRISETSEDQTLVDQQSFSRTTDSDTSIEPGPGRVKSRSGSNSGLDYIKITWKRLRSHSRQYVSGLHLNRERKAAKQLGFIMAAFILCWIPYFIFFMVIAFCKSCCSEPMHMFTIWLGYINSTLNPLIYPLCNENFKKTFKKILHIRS

[7] = tested on: Rattus norvegicus; assay: Catalytic action on male Wistar rats after subcutaneous administration of 10 µmol/kg dose of compound
[8] = tested on: Rattus norvegicus; assay: Locomotor activity in male Wistar rats after a dose of 3 uM/kg, 30 min before 1 mg/kg of apomorphine administration; format: functional
[9] = tested on: Rattus norvegicus; assay: Catalytic action on male Wistar rats after subcutaneous administration of 100 µmol/kg dose of compound
[10] = tested on: Rattus norvegicus; assay: Locomotor activity in male Wistar rats after a dose of 10 uM/kg, 30 min before 1 mg/kg of apomorphine administration; format: functional
[11] = tested on: Rattus norvegicus; assay: Locomotor activity in male Wistar rats after a dose of 30 uM/kg, 30 min before 1 mg/kg of apomorphine administration; format: functional
[12] = tested on: Rattus norvegicus; assay: Locomotor activity in male Wistar rats after a dose of 100 uM/kg, 30 min before 1 mg/kg of apomorphine administration; format: functional
[13] = tested on: Rattus norvegicus; assay: Catalytic action on male Wistar rats after subcutaneous administration of 0.03 µmol/kg dose of compound
[14] = tested on: Rattus norvegicus; assay: Locomotor activity in male Wistar rats after a dose of 0.003 uM/kg, 30 min before 1 mg/kg of apomorphine administration; format: functional
[15] = tested on: Rattus norvegicus; assay: Catalytic action on male Wistar rats after subcutaneous administration of 0.003 µmol/kg dose of compound
[16] = tested on: Rattus norvegicus; assay: Locomotor activity in male Wistar rats after a dose of 0.03 uM/kg, 30 min before 1 mg/kg of apomorphine administration; format: functional
[17] = tested on: Rattus norvegicus; assay: Locomotor activity in male Wistar rats after a dose of 0.3 uM/kg, 30 min before 1 mg/kg of apomorphine administration; format: functional
[18] = tested on: Rattus norvegicus; assay: Catalytic action on male Wistar rats after subcutaneous administration of 0.3 µmol/kg dose of compound
[19] = tested on: Rattus norvegicus; assay: Catalytic action on male Wistar rats after subcutaneous administration of 30 µmol/kg dose of compound
[20] = tested on: Rattus norvegicus; assay: Catalytic action on male Wistar rats after subcutaneous administration of 1.0 µmol/kg dose of compound
[21] = tested on: Rattus norvegicus; assay: Locomotor activity in male Wistar rats after a dose of 1.0 uM/kg, 30 min before 1 mg/kg of apomorphine administration; format: functional
[22] = tested on: Rattus norvegicus; assay: Catalytic action on male Wistar rats after subcutaneous administration of 3.0 µmol/kg dose of compound
[23] = tested on: Rattus norvegicus; assay: Locomotor activity in male Wistar rats after a dose of 3.0 uM/kg, 30 min before 1 mg/kg of apomorphine administration; format: functional

| IC50 [1] [nM] | IC50 [2] [nM] | IC50 [3] [nM] | IC50 [4] [nM] | IC50 [5] [nM] | SMILES | Catalyptic action [7] | Locomotor activity [10] | other results |
| --- | --- | --- | --- | --- | --- | --- | --- | --- |
| 81 | 37 | 35 | 550 | 260 | CN1CCN(C2=Nc3ccccc3Nc3ccc(O)cc32)CC1 |  |  |  |
| 620 | 35 | 550 | 930 | > 1000 | CN1CCN(C2=Nc3cc(OS(=O)(=O)C(F)(F)F)ccc3Nc3ccccc32)CC1 |  |  | IC50 [6]: 720 nM |
| 440 | 27 |  | 9800 | 1200 | CN1CCN(C2=Nc3cc(O)ccc3Nc3ccccc32)CC1 |  |  |  |
| 34 | 1200 | 8 | 64 | 12 | CN1CCN(C2=Nc3ccccc3Nc3ccc(OS(=O)(=O)C(F)(F)F)cc32)CC1 | 0 | 102 | Locomotor activity [8]: 87; Catalyptic action [9]: 0; IC50 [6]: 47 nM; Locomotor activity [11]: 22; Locomotor activity [12]: 8 |
| 21 | 39 | 12 | 550 | 120 | COc1ccc2c(c1)C(N1CCN(C)CC1)=Nc1ccccc1N2 |  |  |  |
| 86 | 19 |  | 7400 | 240 | COc1ccc2c(c1)N=C(N1CCN(C)CC1)c1ccccc1N2 |  |  |  |
|  |  |  |  |  | CN1CCN(C2=Nc3cc(Cl)ccc3Nc3ccccc32)CC1 [CLOZAPINE] | 0 | 98 | Catalyptic action [9]: 0; Locomotor activity [12]: 7 |
|  |  |  |  |  | O=C(CCCN1CCC(O)(c2ccc(Cl)cc2)CC1)c1ccc(F)cc1 [HALOPERIDOL] |  |  | Catalyptic action [13]: 75; Locomotor activity [14]: 88; Catalyptic action [15]: 0; Locomotor activity [16]: 9; Locomotor activity [17]: 1; Catalyptic action [18]: 100 |
|  | 6 |  | 11 | 64 | CN1CCN(C2=Nc3ccccc3Nc3ccc(Cl)cc32)CC1 [ISOCLOZAPINE] | 25 | 3 | Catalyptic action [19]: 75; Catalyptic action [20]: 0; Locomotor activity [21]: 82; Catalyptic action [22]: 0; Locomotor activity [11]: 3; Locomotor activity [23]: 65; Locomotor activity [17]: 114; Catalyptic action [18]: 0 |
